The results in this text go back to US20040038904A1, “Method of treating multiple sclerosis” (priority 2002, published 2004).

This assay relates to progressive multiple sclerosis. The assay is described as follows: Monitoring of progress of treatment (clinical condition) in patient with progressive multiple sclerosis. The conditions noted are these: epirubicin 75-100 mg iv with dexrazoxane, 12-week cycle, first and second treatment cycles. Type of assay: in vivo, human. An excerpt: Anthracyclines of the present invention can be administered in cycles over 7-week to 15-week intervals. Generally, treatment with anthracyclines is started with a 12-week cycle and the patient is monitored for progress of the treatment during the course of treatment. If the condition of the patient deteriorates between week 8 and 12 of the cycle, the treatment cycle should be shortened to, for example, 9 weeks or shorter.
A patient is diagnosed with progressive multiple sclerosis. Anthracycline therapy with epirubicin 75 mg by intravenous injection is initiated on a 12-week cycle. Prior to the administration of the anthracycline, the patient is pretreated with dexrazoxane at 750 mg by intravenous injection. The patient is monitored for progress of treatment and hematologic and non-hematologic toxicity throughout the course of treatment.

Take `COc1cccc2c1C(=O)c1c(O)c3c(c(O)c1C2=O)C[C@@](O)(C(=O)CO)C[C@@H]3O[C@H]1C[C@H](N)[C@@H](O)[C@H](C)O1` [epirubicin]: the “patient's clinical condition during treatment cycle” value was “deteriorates between weeks 9 and 12”.
